# Results: patent publication EP4635488A1, “PHARMACEUTICAL COMPOSITION FOR PREVENTING OR TREATING BONE DISEASES” (Industry Foundation of Chonnam National University, priority 2022, dated 2024)
# Assays:
# [1] = test system: human IPSC-derived macrophages; assay: Human osteoclast differentiation model (TRAP staining / TRAP activity); assay type: cell-based; details: 10 days; 50 ng/mL hM-CSF and 100 ng/mL hRANKL
# Description: However, it is unclear whether 25-KR-03 has an inhibitory effect on human osteoclast differentiation. Accordingly, a human osteoclast differentiation model was established using human IPSC-derived macrophages. Cells were incubated with 50 ng/mL human M-CSF and 100 ng/mL RANKL to induce mature osteoclast formation.
# Specifically, in FIG. 7A, the inhibitory effect of 25-KR-03 on human osteoclast differentiation was analyzed through TRAP staining. Human IPSC-derived macrophages were treated with the indicated concentrations of 25-KR-03 for 10 days in the induction medium containing 50 ng/mL hM-CSF and 100 ng/mL hRANKL. After the formation of multinucleated osteoclasts, TRAP staining was performed to visualize the formed osteoclasts.
# [2] = test system: OVX-induced osteoporosis mouse model; assay: OVX-induced osteoporosis mouse model (micro-CT, body weight); assay type: in vivo, C57BL/6 female mice; details: for prevention of bone loss (Tb.Th and BMD values, micro-CT of femur): 20 mg/kg intraperitoneally once daily for 4 weeks after surgery, compared with the OVX group
# Description: Specific pathogen-free facilities were used to grow mice. To investigate the effects of 25-KR-03 in vivo, the inventors established an OVX-induced osteoporosis mouse model as previously described. Seven-week-old C57BL/6 female mice were divided into four groups (Sham, OVX, 25-KR-03, and PMSA-3-Ac). Among them, the OVX, 25-KR-03, and PMSA-3-Ac groups underwent OVX surgery.
# After a 1-week recovery period, mice were intraperitoneally injected with 25-KR-03 or PMSA-3-Ac (20 mg/kg, dissolved in a mixture of 10 % Tween 80 and 10% DMSO) once daily for 4 weeks. The sham and control (OVX) groups received equal volumes of the mixture of 10 % Tween 80 and 10% DMSO once daily for 4 weeks. Body weights of the mice were measured weekly. When the mice were euthanized, the femurs were isolated and fixed in 4.0% paraformaldehyde for micro-computed tomography (micro-CT) analysis as previously performed.
# Micro-CT scanning was performed as in previous studies. The Quantum GX Micro-CT imaging system (PerkinElmer, Hopkinton, MA, USA) was used at the Korea Basic Science Institute (Gwangju, Korea).
# [3] = test system: F-actin belts of mature osteoclasts; assay: F-actin ring immunofluorescence analysis (phalloidin staining); assay type: cell-based, C57/BL6 mice
# Description: (§1) Bone resorption analysis was performed by a conventional method. Briefly, BMMs (2 × 10^4 cells/well) were seeded into a coated 48-well plate provided in the kit. After culturing with or without the indicated doses of 25-KR-03 and PMSA-3-Ac until mature osteoclasts were observed, 100 µL supernatant was harvested from each well and placed in a black polypropylene 96-well microplate. Fluorescence intensity was measured using a SpectraMax i3x fluorescence plate reader (excitation wavelength 485 nm; emission wavelength 535 nm). The decalcified pit area was visible under a microscope and calculated using ImageJ software. F-actin rings were visible using a rhodamine-coupled phalloidin staining assay (Thermo Fisher Scientific) as previously described.
# (§2) In FIG. 4C, the fluorescence intensity of each group after 6 days was measured at excitation and emission wavelengths of 485 nm and 535 nm, respectively. All experiments were repeated three times.
# NFATc1 = assay: Western blotting analysis of osteoclast proteins and NFATc1 nuclear translocation; assay type: cell-based, C57/BL6 mice
# Description: Total protein was extracted from osteoclasts and processed by a conventional method. To obtain total cell lysates, cells were lysed in ice-cold RIPA buffer for 30 min. After measuring the total protein concentration using the Enhanced BCA Protein Assay Kit, the protein was separated using 8-12% SDS-PAGE and transferred to a polyvinylidene fluoride membrane. Next, the membrane was blocked using 5% skim milk and incubated with a primary antibody (1:2,000 dilution) overnight. After incubation with a secondary antibody (1:2,000 dilution) for 1 hour, the membrane was washed and developed using an enhanced chemiluminescence (ECL) buffer as previously described. Relative protein expression was calculated by densitometric analysis using Image J software.
# Specifically, in FIG. 6A, immunoblotting was performed for analysis. Culture was performed with or without 25-KR-03 for the indicated days in induction medium. […] GAPDH/LaminB1 was used as a loading control.
# RANKL-induced BMM = assay: In vitro osteoclast formation assay (TRAP staining / TRAP activity); assay type: cell-based, C57/BL6 mice
# Description: (§3) Bone marrow cells (BMC) were obtained from 8-week-old female C57/BL6 mice by washing femurs and tibias with α-MEM. BMCs were then cultured overnight in full α-MEM containing 10% FBS, 100 U/mL penicillin, and 100 µg/mL streptomycin. Non-attached cells were collected and cultured with M-CSF (30 ng/ mL) for 3 days, and then the attached cells were used as BMM. All animal experiments were approved by Chonnam National University IACUC (approval number: CNU IACUC-YB-2019-49).
# (§4) To generate osteoclasts, BMMs were harvested and cultured in a complete medium containing 30 ng/mL M-CSF and 50 ng/mL RANKL with or without compounds for approximately 4 days to obtain mature osteoclasts. Differentiated osteoclasts were fixed with 4% formalin for 15 minutes, and then the cells were stained using a TRAP staining kit. The spread of osteoclast areas could be observed under the microscope. The viability of BMM (1 × 10^4 cells/well) was assessed in a 96-well plate using a cell viability assay kit as previously described.
# BMDMs = assay: Cell viability assay of BMM/BMDMs; assay type: cell-based, C57/BL6 mice; details: below 4 µM; 48 hours
# Description: as §3, §4
# [4] = test system: osteoclast-specific genes; assay: Quantitative real-time PCR of osteoclast-specific genes; assay type: cell-based, C57/BL6 mice; details: Acp5, NFATc1, DC-STAMP, ATP6V0d2, MMP9 and Ctsk; 0, 1, 2, and 4 days
# Text: Total RNA from BMM was isolated using QIAzol RNA lysis reagent (Qiagen Sciences, Valencia, CA, USA).
# Specifically, FIGS. 5A to 5F show the results of measuring the relative mRNA levels of the indicated osteoclast-specific genes using qRT-PCR with or without 25-KR-03 treatment for 0, 1, 2, and 4 days. Black bars represent M-CSF and RANKL treatment groups ("Con") and gray bars correspond to 25-KR-03 treatment groups. Transcript levels were normalized to expression at day 0. All experiments were repeated three times.
# [5] = test system: osteoclast bone resorption; assay: Bone resorption analysis on fluoresceine amine-labeled calcium phosphate plates; assay type: cell-based, C57/BL6 mice
# Description: as §1, §2
# [6] = Mus musculus, 1 µM, osteoclast differentiation in RANKL-induced BMM, mean ± SD from at least three experiments, read-out: Inhibition rate (%)
structure (smiles),measurement,setting,value
"COC(=O)c1cccc(NCC(=O)Nc2ccccc2Sc2ccccc2)c1 [Compound 25-KR-03, Methyl 3-((2-oxo-2-((2-(phenylthio)phenyl)amino)ethyl)amino)benzoate]",inhibitory effect on human osteoclast differentiation,[1],has bioactivity in both mouse and human cells
same,"prevention of bone loss (Tb.Th and BMD values, micro-CT of femur)",[2],slight but significant prevention of bone loss
same,body weight,"[2]; 20 mg/kg intraperitoneally once daily, 4 weeks",no significant weight reduction
same,actin ring formation,"[3]; at the indicated doses, RANKL/M-CSF-induced",inhibited
same,"osteoclast F-actin belt formation, inhibition compared with control inhibitor",[3]; versus PMSA-3-Ac (10 µM),more strongly than PMSA-3-Ac
same,NFATc1 protein levels in the nucleus,"NFATc1; BMDMs, 48 hours",significantly reduced
same,NFATc1 protein levels in the cytoplasm,"NFATc1; BMDMs, 48 hours, not significant",slightly increased
same,protein expression of Ctsk,NFATc1; Western blotting,significantly inhibited
same,"protein expression of NFATc1, Traf6, c-src, GSK3β and calcineurin A","NFATc1; Western blotting, compared to the control group",no significant effect
same,inhibitory effect on osteoclast differentiation,"RANKL-induced BMM; 2 µM, TRAP staining",almost complete inhibition
same,inhibition at 1 µM,RANKL-induced BMM; [6],72.3 ± 6.33%
same,inhibition at 2 µM,"RANKL-induced BMM; Mus musculus, 2 µM, osteoclast differentiation in RANKL-induced BMM, mean ± SD from at least three experiments, read-out: Inhibition rate (%)",99.89 ± 0.04%
same,IC50,"RANKL-induced BMM; Mus musculus, Differentiation of BMDM, based on TRAP activity, 0 to 4000 nM",323 nM
same,formation of multinucleated mature osteoclasts,"RANKL-induced BMM; RANKL-induced, concentration range up to 4000 nM",completely blocked
same,cell viability of BMDMs,BMDMs,no significant effect
same,relative mRNA expression levels of RANKL-induced osteoclastogenesis-related genes,[4],obviously decreased
same,resorption pit area,"[5]; 0.5, 1, and 2 µM, M-CSF and RANKL, 6 days",significantly reduced
same,fluorescence intensity,"[5]; dose-dependent manner, 6 days, excitation 485 nm, emission 535 nm",reduced
same,bone resorption inhibition compared with control inhibitor,[5]; versus PMSA-3-Ac,more effective than PMSA-3-Ac
"COC(=O)c1cccc(N(CC(=O)Nc2ccccc2Sc2ccccc2)S(=O)(=O)c2ccc(C)cc2)c1 [Compound 25-KR-26, Methyl 3-((4-methyl-N-(2-oxo-2-((2-(phenylthio)phenyl)amino)ethyl)phenyl)sulfonamido)benzoate]",Inhibition rate (%),"RANKL-induced BMM; 1 µM, osteoclast differentiation in RANKL-induced BMM, mean ± SD from at least three experiments",49.09 ± 2.32%
"O=C(CNc1cccc(C(=O)O)c1)Nc1ccccc1Sc1ccccc1 [Compound 25-KR-27, 3-((2-oxo-2-((2-(phenylthio)phenyl)amino)ethyl)amino)benzoic acid]",inhibition at 1 µM,RANKL-induced BMM; [6],31.8 ± 1.93%
"CC(=O)c1cccc(N(CC(=O)Nc2ccccc2Sc2ccccc2)S(C)(=O)=O)c1 [PMSA-3-Ac, reference compound]","prevention of bone loss (Tb.Th and BMD values, micro-CT of femur)",[2],no significant effect
